Legend:
human B1R receptor = target: T1, human B1R receptor (Homo sapiens, UniProt P46663); assay: Functional study on the bradykinin receptor 1 (B1R), FLIPR Ca2+ assay, hB1R cells; type: cell-based; details: agonist Lys-Des-Arg9-bradykinin 0.5 nM, % inhibition compared with the maximum achievable inhibition; for inhibition at 10 µM: CHO-K1, test substance 10 μM, read-out: B1R Antagonism, human [10 μM] % Inhibition; for B1R Antagonism, human [10 μM] % Inhibition: test substance 10 μM, hB1R CHO K1 cells
T1 construct: host or cells: CHO K1 cells (Chinese hamster ovary), stably transfected
T1 sequence (P46663 1-353): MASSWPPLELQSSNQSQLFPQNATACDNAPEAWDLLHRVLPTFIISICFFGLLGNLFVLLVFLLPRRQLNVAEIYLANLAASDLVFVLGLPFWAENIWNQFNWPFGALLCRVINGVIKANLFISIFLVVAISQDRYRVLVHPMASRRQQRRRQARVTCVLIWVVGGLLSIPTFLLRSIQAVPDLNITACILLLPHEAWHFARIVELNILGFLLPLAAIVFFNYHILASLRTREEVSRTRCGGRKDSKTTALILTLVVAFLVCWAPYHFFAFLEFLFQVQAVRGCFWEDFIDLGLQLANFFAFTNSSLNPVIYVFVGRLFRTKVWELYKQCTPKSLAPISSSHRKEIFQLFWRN
In short: (§1)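 CHO K1 cells stably expressing human or rat B1R, Fluo-4-loaded; test compound 10 μM added first (activation % vs agonist), then after 10 min 0.5 nM Lys-Des-Arg9-bradykinin (human) or 100 nM Des-Arg9-bradykinin (rat). Ca2+ peak fluorescence by FLIPR; % inhibition relative to maximum achievable inhibition.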

B1R receptor of the rat = target: T2, B1R receptor of the rat (Rattus norvegicus, UniProt P97583); assay: Functional study on the bradykinin receptor 1 (B1R), FLIPR Ca2+ assay, rB1R cells; type: cell-based; details: agonist Des-Arg9-bradykinin 100 nM, % inhibition compared with the maximum achievable inhibition; for inhibition at 10 µM: CHO-K1, test substance 10 μM, read-out: B1R Antagonism, rat [10 μM] % Inhibition; for B1R Antagonism, rat [10 μM] % Inhibition: test substance 10 μM, rB1R CHO K1 cells
T2 construct: host or cells: CHO K1 cells (Chinese hamster ovary), stably transfected
T2 sequence (P97583 1-337): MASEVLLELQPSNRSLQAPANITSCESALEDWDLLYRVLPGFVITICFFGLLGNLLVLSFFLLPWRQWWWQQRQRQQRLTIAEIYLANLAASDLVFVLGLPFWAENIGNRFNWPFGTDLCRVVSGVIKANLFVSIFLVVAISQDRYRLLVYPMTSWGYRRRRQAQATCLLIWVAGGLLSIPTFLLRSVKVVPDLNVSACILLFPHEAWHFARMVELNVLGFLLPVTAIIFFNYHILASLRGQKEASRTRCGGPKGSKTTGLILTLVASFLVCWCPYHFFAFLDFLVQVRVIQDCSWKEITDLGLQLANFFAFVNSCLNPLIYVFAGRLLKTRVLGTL
In short: as §1

Work on `COc1cc(C)c(S(=O)(=O)N2CCCCC2COCC(=O)Nc2nccc3ccccc23)c(C)c1` (centres unmarked) [Example 370, N-(isoquinolin-1-yl)-2-((1-(4-methoxy-2,6-dimethylphenylsulfonyl)piperidin-2-yl)methoxy)acetamide] yielded an inhibition at 10 µM (human B1R receptor) of 18.7% and an inhibition at 10 µM (B1R receptor of the rat) of 98.8%.

With `COc1cc(C)c(S(=O)(=O)N2CCCCC2COCC(=O)Nc2nc3ccccc3n2C)c(C)c1` (centres unmarked) [Example 371, 2-((1-(4-methoxy-2,6-dimethylphenylsulfonyl)piperidin-2-yl)methoxy)-N-(1-methyl-1H-benzo[d]imidazol-2-yl)acetamide] the inhibition at 10 µM (human B1R receptor) was 0.38% and the inhibition at 10 µM (B1R receptor of the rat) was 101%.

Work on `COc1cc(C)c(S(=O)(=O)N2CCCCC2COCC(=O)Nc2ccncn2)c(C)c1` (centres unmarked) [Example 372, 2-((1-(4-methoxy-2,6-dimethylphenylsulfonyl)piperidin-2-yl)methoxy)-N-(pyrimidin-4-yl)acetamide] yielded an inhibition at 10 µM (human B1R receptor) of -2.76% and an inhibition at 10 µM (B1R receptor of the rat) of 83.8%.

`COc1cc(C)c(S(=O)(=O)N2CCCCC2COCC(=O)N2CCN(CCc3ccccc3)CC2)c(C)c1` (centres unmarked) [Example 373, 2-((1-(4-methoxy-2,6-dimethylphenylsulfonyl)piperidin-2-yl)methoxy)-1-(4-phenethylpiperazin-1-yl)ethanone] gave an inhibition at 10 µM (human B1R receptor) of 104% and an inhibition at 10 µM (B1R receptor of the rat) of 98.8%.

`COc1cc(C)c(S(=O)(=O)N2CCCCC2COCC(=O)N2CCC[C@H]2CN2CCCC2)c(C)c1` (stereo partly drawn) [Example 374, 2-((1-(4-methoxy-2,6-dimethylphenylsulfonyl)piperidin-2-yl)methoxy)-1-((S)-2-(pyrrolidin-1-ylmethyl)pyrrolidin-1-yl)ethanone] gave an inhibition at 10 µM (human B1R receptor) of 80.8% and an inhibition at 10 µM (B1R receptor of the rat) of 102%.

Compound `COc1cc(C)c(S(=O)(=O)N2CCCCC2COCC(=O)N2CCCN(C)CC2)c(C)c1` (centres unmarked) [Example 375, 2-((1-(4-methoxy-2,6-dimethylphenylsulfonyl)piperidin-2-yl)methoxy)-1-(4-methyl-1,4-diazepan-1-yl)ethanone] has an inhibition at 10 µM (human B1R receptor) of 98.7% and an inhibition at 10 µM (B1R receptor of the rat) of 99.8%.

Compound `COc1cc(C)c(S(=O)(=O)N2CCCCC2COCC(=O)N2CCN(c3ncc(C(F)(F)F)cc3Cl)CC2)c(C)c1` (centres unmarked) [Example 376, 1-(4-(3-chloro-5-(trifluoromethyl)pyridin-2-yl)piperazin-1-yl)-2-((1-(4-methoxy-2,6-dimethylphenylsulfonyl)piperidin-2-yl)methoxy)ethanone] has an inhibition at 10 µM (human B1R receptor) of 67.1% and an inhibition at 10 µM (B1R receptor of the rat) of 99%.

For `COc1cc(C)c(S(=O)(=O)N2CCCCC2COCC(=O)N(CCN(C)C)Cc2ccccc2)c(C)c1` (centres unmarked) [Example 377], the “B1R Antagonism, human [10 μM] % Inhibition” value (human B1R receptor) was 87.21% and the “B1R Antagonism, rat [10 μM] % Inhibition” value (B1R receptor of the rat) was 99.56%.

`COc1cc(C)c(S(=O)(=O)N2CCCCC2COCC(=O)N2CCN(c3ccc(Cl)c(Cl)c3)CC2)c(C)c1` (centres unmarked) [Example 378, 1-(4-(3,4-dichlorophenyl)piperazin-1-yl)-2-((1-(4-methoxy-2,6-dimethylphenylsulfonyl)piperidin-2-yl)methoxy)ethanone] gave an inhibition at 10 µM (human B1R receptor) of 63.4% and an inhibition at 10 µM (B1R receptor of the rat) of 98.8%.

Compound `COc1cc(C)c(S(=O)(=O)N2CCCCC2COCC(=O)N(C)CCN(C)C)c(C)c1` (centres unmarked) [Example 379, N-(2-(dimethylamino)ethyl)-2-((1-(4-methoxy-2,6-dimethylphenylsulfonyl)piperidin-2-yl)methoxy)-N-methylacetamide] has an inhibition at 10 µM (human B1R receptor) of 67.9% and an inhibition at 10 µM (B1R receptor of the rat) of 102%.

Work on `CCN(CC)CCN(CC)C(=O)COCC1CCCCN1S(=O)(=O)c1c(C)cc(OC)cc1C` (centres unmarked) [Example 380, N-(2-(diethylamino)ethyl)-N-ethyl-2-((1-(4-methoxy-2,6-dimethylphenylsulfonyl)piperidin-2-yl)methoxy)acetamide] yielded an inhibition at 10 µM (human B1R receptor) of 91.5% and an inhibition at 10 µM (B1R receptor of the rat) of 101%.

`COc1cc(C)c(S(=O)(=O)N2CCCCC2COCC(=O)N2CCN(Cc3ccc(Cl)c(Cl)c3)CC2)c(C)c1` (centres unmarked) [Example 381, 1-(4-(3,4-dichlorobenzyl)piperazin-1-yl)-2-((1-(4-methoxy-2,6-dimethylphenylsulfonyl)piperidin-2-yl)methoxy)ethanone] showed an inhibition at 10 µM (human B1R receptor) of 77.9% and an inhibition at 10 µM (B1R receptor of the rat) of 100%.

Work on `COc1cc(C)c(S(=O)(=O)N2CCCCC2COCC(=O)N2CCN(Cc3ccc(Br)cc3)CC2)c(C)c1` (centres unmarked) [Example 382, 1-(4-(4-bromobenzyl)piperazin-1-yl)-2-((1-(4-methoxy-2,6-dimethylphenylsulfonyl)piperidin-2-yl)methoxy)ethanone] yielded an inhibition at 10 µM (human B1R receptor) of 103% and an inhibition at 10 µM (B1R receptor of the rat) of 101%.

`COc1cc(C)c(S(=O)(=O)N2CCCCC2COCC(=O)N2CCN(Cc3c(C)cc(C)cc3C)CC2)c(C)c1` (centres unmarked) [Example 383, 2-((1-(4-methoxy-2,6-dimethylphenylsulfonyl)piperidin-2-yl)methoxy)-1-(4-(2,4,6-trimethylbenzyl)piperazin-1-yl)ethanone] was tested, and the inhibition at 10 µM (human B1R receptor) was 40.2% and the inhibition at 10 µM (B1R receptor of the rat) was 102%.

`COc1cc(C)c(S(=O)(=O)N2CCCCC2COCC(=O)N2CCN(Cc3ccc(Cl)cc3)CC2)c(C)c1` (centres unmarked) [Example 384, 1-(4-(4-chlorobenzyl)piperazin-1-yl)-2-((1-(4-methoxy-2,6-dimethylphenylsulfonyl)piperidin-2-yl)methoxy)ethanone] was tested, and the inhibition at 10 µM (human B1R receptor) was 105% and the inhibition at 10 µM (B1R receptor of the rat) was 98.6%.

With `COc1cc(C)c(S(=O)(=O)N2CCCCC2COCC(=O)N2CCN(Cc3ccc(C)cc3)CC2)c(C)c1` (centres unmarked) [Example 385, 2-((1-(4-methoxy-2,6-dimethylphenylsulfonyl)piperidin-2-yl)methoxy)-1-(4-(4-methylbenzyl)piperazin-1-yl)ethanone] the inhibition at 10 µM (human B1R receptor) was 101% and the inhibition at 10 µM (B1R receptor of the rat) was 99.5%.

`COc1ccc(CN2CCN(C(=O)COCC3CCCCN3S(=O)(=O)c3c(C)cc(OC)cc3C)CC2)cc1` (centres unmarked) [Example 386, 2-((1-(4-methoxy-2,6-dimethylphenylsulfonyl)piperidin-2-yl)methoxy)-1-(4-(4-methoxybenzyl)piperazin-1-yl)ethanone] gave an inhibition at 10 µM (human B1R receptor) of 101% and an inhibition at 10 µM (B1R receptor of the rat) of 97.9%.

Compound `COc1cc(C)c(S(=O)(=O)N2CCCCC2COCC(=O)N2CCN(Cc3ccccc3F)CC2)c(C)c1` (centres unmarked) [Example 387, 1-(4-(2-fluorobenzyl)piperazin-1-yl)-2-((1-(4-methoxy-2,6-dimethylphenylsulfonyl)piperidin-2-yl)methoxy)ethanone] has an inhibition at 10 µM (human B1R receptor) of 91% and an inhibition at 10 µM (B1R receptor of the rat) of 101%.

With `COc1cc(C)c(S(=O)(=O)N2CCCCC2COCC(=O)N2CCN(C)CC2c2ccccc2)c(C)c1` (centres unmarked) [Example 388, 2-((1-(4-methoxy-2,6-dimethylphenylsulfonyl)piperidin-2-yl)methoxy)-1-(4-methyl-2-phenylpiperazin-1-yl)ethanone] the inhibition at 10 µM (human B1R receptor) was 22.9% and the inhibition at 10 µM (B1R receptor of the rat) was 101%.

With `O=C(COCC1CCCCN1S(=O)(=O)c1c(Cl)cc(Cl)cc1Cl)N1CCC(c2cccnc2)C1` (centres unmarked) [Example 389] the “B1R Antagonism, human [10 μM] % Inhibition” value (human B1R receptor) was 100.51% and the “B1R Antagonism, rat [10 μM] % Inhibition” value (B1R receptor of the rat) was 100.49%.

Work on `O=C(COCC1CCCCN1S(=O)(=O)c1c(Cl)cc(Cl)cc1Cl)N1CCC(c2ccncc2)C1` (centres unmarked) [Example 390, 1-(3-(pyridin-4-yl)pyrrolidin-1-yl)-2-((1-(2,4,6-trichlorophenylsulfonyl)piperidin-2-yl)methoxy)ethanone] yielded an inhibition at 10 µM (human B1R receptor) of 103% and an inhibition at 10 µM (B1R receptor of the rat) of 99.8%.

For `CN(CCc1ccncc1)C(=O)COCC1CCCCN1S(=O)(=O)c1c(Cl)cc(Cl)cc1Cl` (centres unmarked) [Example 391, N-methyl-N-(2-(pyridin-4-yl)ethyl)-2-((1-(2,4,6-trichlorophenylsulfonyl)piperidin-2-yl)methoxy)acetamide], the inhibition at 10 µM (human B1R receptor) was 97.8% and the inhibition at 10 µM (B1R receptor of the rat) was 102%.

`CN(C(=O)COCC1CCCCN1S(=O)(=O)c1c(Cl)cc(Cl)cc1Cl)C(CN1CCCC1)c1ccccc1` (centres unmarked) [Example 392, N-methyl-N-(1-phenyl-2-(pyrrolidin-1-yl)ethyl)-2-((1-(2,4,6-trichlorophenylsulfonyl)piperidin-2-yl)methoxy)acetamide] was tested, and the inhibition at 10 µM (human B1R receptor) was 101% and the inhibition at 10 µM (B1R receptor of the rat) was 99.1%.

`CN1CCN(C(=O)COCC2CCCCN2S(=O)(=O)c2c(Cl)cc(Cl)cc2Cl)CC1` (centres unmarked) [Example 393, 1-(4-methylpiperazin-1-yl)-2-((1-(2,4,6-trichlorophenylsulfonyl)piperidin-2-yl)methoxy)ethanone] showed an inhibition at 10 µM (human B1R receptor) of 104% and an inhibition at 10 µM (B1R receptor of the rat) of 101%.

Work on `O=C(COCC1CCCCN1S(=O)(=O)c1c(Cl)cc(Cl)cc1Cl)NCc1ccncc1` (centres unmarked) [Example 394, N-(pyridin-4-ylmethyl)-2-((1-(2,4,6-trichlorophenylsulfonyl)piperidin-2-yl)methoxy)acetamide] yielded an inhibition at 10 µM (human B1R receptor) of 31.5% and an inhibition at 10 µM (B1R receptor of the rat) of 99.1%.
